Measured values as given in ChEMBL document CHEMBL5096158, “HIV latency reversal agents: A potential path for functional cure?” (Eur J Med Chem, 2021).

Columns and labels:
[1] = system: Human immunodeficiency virus 1; test: Reactivation of HIV-1 latency infected in human Th17 cells assessed as increase in HIV production by measuring phosphorylated S175 CDK9 levels at 10 nM incubated for 96 hrs by flow cytometry; assay type: functional
[2] = system: Human immunodeficiency virus 1; test: Reactivation of HIV-1 latency infected in human Th17 cells assessed as increase in HIV production by measuring phosphorylated S175 CDK9 levels at 1 uM incubated for 96 hrs by flow cytometry; assay type: functional
[3] = system: Human immunodeficiency virus 1; test: Reversal of HIV-1 latency infected in human J-Lat Tat-GFP Clone A7 cells assessed as increase in GFP expressing cells at 200 nM incubated for 72 hrs by flow cytometry analysis relative to control; assay type: functional
[4] = system: Human immunodeficiency virus 1; test: Reactivation of HIV-1 latency in human U1 cells assessed as fold increase in HIV transcription by measuring GFP expression at 2 uM incubated for 24 hrs in presence of PEP005 by flow cytometry; assay type: functional
[5] = system: Human immunodeficiency virus 1; test: Reversal of HIV-1 latency infected in GFP-fused human J-Lat C11 cells assessed as increase in GFP expression at 10 uM incubated for 72 hrs by flow cytometry; assay type: functional
[6] = system: Human immunodeficiency virus 1; test: Reversal of HIV-1 latency infected in GFP-fused human J-Lat 10.6 cells increase in GFP expressing cells by FACS analysis; assay type: functional, organism-based; conditions: Human immunodeficiency virus 1, J-Lat 10.6
[7] = system: Human immunodeficiency virus 1; test: Reactivation of HIV-1 latency in GFP-fused human primary CD4+ve Th cells infected with HIV-1NL4-3 luciferase virus assessed as fold increase in GFP expression incubated for 48 hrs by luciferase luminescence analysis; assay type: functional
[8] = system: Human immunodeficiency virus 1; test: Reversal of HIV-1 latency infected in GFP-fused human J-Lat C11 cells assessed as increase in GFP expression at 4 uM incubated for 3 hrs by flow cytometry; assay type: functional
[9] = system: Human immunodeficiency virus 1; test: Reversal of HIV-1 latency infected in GFP-fused human J-Lat A2 cells assessed as increase in GFP expression at 4 uM incubated for 3 hrs by flow cytometry; assay type: functional
[10] = system: Human immunodeficiency virus 1; test: Reactivation of HIV-1 latency infected in human J-Lat GFP Clone A72 cells assessed as increase in GFP expression at 5 to 10 mM incubated for 18 hrs by flow cytometry; assay type: functional; conditions: dose 5-10 mM
[11] = biological target: N-lysine methyltransferase SMYD2 (Homo sapiens, UniProt Q9NRG4); test: Inhibition of SMYD2 (unknown origin)
[12] = system: Human immunodeficiency virus 1; test: Reactivation of HIV-1 latency infected in human CD4+ve Th cells assessed as fold increase in GFP expression at 500 nM incubated for 18 hrs by flow cytometry; assay type: functional
[13] = system: Human immunodeficiency virus 1; test: Reversal of HIV-1 latency infected in GFP-fused human A10.6 cells assessed as increase in GFP expressing cells at 0.25 uM incubated for 24 hrs by FACS analysis; assay type: functional
[14] = system: Human immunodeficiency virus 1; test: Reversal of HIV-1 latency infected in GFP-fused human A10.6 cells assessed as increase in GFP expressing cells at 1 uM incubated for 24 hrs by FACS analysis; assay type: functional, A10.6 cell
[15] = system: Human immunodeficiency virus 1; test: Reversal of HIV-1 latency infected in GFP-fused human A10.6 cells assessed as fold increase in acetylation of H4 within Nuc-1 at 0.5 uM incubated for 4 hrs by ChIP assay; assay type: functional, A10.6 cell
[16] = system: Human immunodeficiency virus 1; test: Reversal of HIV-1 latency infected in GFP-fused human A10.6 cells assessed as fold increase in acetylation of H3 within Nuc-1 at 0.5 uM incubated for 4 hrs by ChIP assay; assay type: functional, A10.6 cell
[17] = system: Human immunodeficiency virus 1; test: Reversal of HIV-1 latency infected in GFP-fused human Jurkat latent cells assessed as increase in GFP expressing cells at 4 uM incubated for 48 hrs by flow cytometry analysis; assay type: functional

Chain of N-lysine methyltransferase SMYD2 (Q9NRG4 whole entry): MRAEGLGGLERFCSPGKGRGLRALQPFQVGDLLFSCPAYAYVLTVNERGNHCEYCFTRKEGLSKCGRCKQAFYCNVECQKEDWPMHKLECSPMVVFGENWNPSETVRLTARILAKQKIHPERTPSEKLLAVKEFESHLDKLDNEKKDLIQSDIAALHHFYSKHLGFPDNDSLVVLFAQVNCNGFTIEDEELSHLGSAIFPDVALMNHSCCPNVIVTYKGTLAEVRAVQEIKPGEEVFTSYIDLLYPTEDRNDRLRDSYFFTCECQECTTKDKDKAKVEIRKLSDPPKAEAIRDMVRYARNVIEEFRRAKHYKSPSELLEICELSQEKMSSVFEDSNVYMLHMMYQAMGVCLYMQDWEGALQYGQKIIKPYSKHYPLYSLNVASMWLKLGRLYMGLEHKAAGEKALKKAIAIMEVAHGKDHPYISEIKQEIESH

Q: Which Activity [1] does the source give for `COc1cc2c(NC3CCN(C(C)C)CC3)nc(C3CCCCC3)nc2cc1OCCCN1CCCC1` here?
A: Its Activity is 22%.

Q: What about the Activity [2] of the same molecule?
A: The Activity was 35%.

Q: `CN(C)c1ccc(C(=O)NCCCCCCC(=O)NO)cc1` was tested. Which Activity [3] did it give?
A: The Activity was 25.2%.

Q: Which “fold change (FC)” value [4] does the source give for `Cc1sc2c(c1C)C(c1ccc(Cl)cc1)=N[C@@H](CC(=O)OC(C)(C)C)c1nnc(C)n1-2` here?
A: Its value is 250.

Q: For `COc1ccccc1S(=O)(=O)Nc1ccc2c(c1)CN(C)C(=O)N2`, which Activity [5] is on record?
A: Its Activity is 89%.

Q: For `CCCc1cc(C)[nH]c(=O)c1CNC(=O)c1cc(-c2ccnc(N3CCN(C)CC3)c2)cc2c1cnn2C(C)C`, which Activity [1] is on record?
A: The Activity was 20%.

Q: What about the Activity [2] of the same molecule?
A: Its Activity is 35%.

Q: `O=C(CCCCSc1nc(-c2ccc(-c3ccccc3)cc2)cc(=O)[nH]1)NO` was tested. Which EC50 [6] did it give?
A: Its EC50 is 350 nM.

Q: And the “fold change (FC)” value [7]?
A: Its value is 4.3.

Q: Which results are given for `O=C(/C=C/c1ccc(NC(=O)C(Cc2ccccc2)c2ccccc2)cn1)NO` (configuration not stated)?
A: EC50 [6]: 350 nM; fold change (FC) [7]: 6.4

Q: Which Activity [8] does the source give for `Nc1ccc(F)cc1NC(=O)c1ccc(CNC(=O)/C=C/c2cccnc2)cc1` here?
A: Its Activity is 82.6%.

Q: What about the Activity [9] of the same molecule?
A: Its Activity is 80.6%.

Q: How did the Activity [10] turn out when `O=C(NCCCN1CCCC1)c1cncc(-c2ccccc2N2CCN(CCc3c[nH]c4ccccc34)CC2)c1` was run?
A: Its Activity is 30%.

Q: How did the IC50 [11] turn out when `N#Cc1cc(C(=O)NCCCN2CCCC2)cc(-c2ccccc2N2CCN(CCc3c[nH]c4ccccc34)CC2)c1` was run?
A: The IC50 was 27 nM.

Q: What about the Activity [10] of the same molecule?
A: Its Activity is 30%.

Q: And the “fold change (FC)” value [12]?
A: The value was 4.

Q: For `CCC(=O)CCCCC[C@@H]1NC(=O)[C@H]2CCCCN2C(=O)[C@H]([C@@H](C)CC)NC(=O)[C@H](Cc2cc3ccccc3n2OC)NC1=O`, which Activity [13] is on record?
A: Its Activity is 7.5%.

Q: And the Activity [14]?
A: The Activity was 24.9%.

Q: And the “fold change (FC)” value [15]?
A: The value was 3.15.

Q: What about the “fold change (FC)” value [16] of the same molecule?
A: The value was 1.34.

Q: With `CC(=O)SCCCCC[C@H](NC(=O)C1CCC(=O)N1)C(=O)Nc1ccccc1` (some centres not stated) as the molecule, how does the Activity [17] read?
A: The Activity was 52%.
